Values joined by “and” are separate entries in the source; they are usually repeats but may differ in a detail not shown here. Equal values may be shown once.
Test system: 379773-124-R-J2-PDC complex spheroids, viability % test/control
Test: Anticancer human tumor 379773-124-R-J2-PDC patient-derived endometrial carcinoma cell line growth inhibition [CLK]
Details: for viability, T/C: stronger effect = lower value; active = viability on the fitted dose curve at most 10% of control; inactive = the rest
Outline: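 Patient-derived tumor cells grown as complex spheroids with HUVEC endothelial cells and mesenchymal stem cells, treated with drug combinations. Concentrations descend in half-log steps from near clinical Cmax, or from 10 microM if Cmax unknown.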

[1] = curve of first compound, second compound 0.0316 µM
[2] = curve of first compound, second compound 0.1 µM
[3] = curve of first compound, second compound 0.316 µM
[4] = curve of first compound, second compound 1 µM
[5] = curve of first compound, second compound 3.16 µM
[6] = curve of first compound, second compound 10 µM
[7] = second compound 0.0316 µM, first compound 0.0316 µM
[8] = second compound 0.0316 µM, first compound 0.1 µM
[9] = second compound 0.0316 µM, first compound 0.316 µM
[10] = second compound 0.0316 µM, first compound 1 µM
[11] = second compound 0.0316 µM, first compound 3.16 µM
[12] = second compound 0.0316 µM, first compound 10 µM
[13] = second compound 0.1 µM, first compound 0.0316 µM
[14] = second compound 0.1 µM, first compound 0.1 µM
[15] = second compound 0.1 µM, first compound 0.316 µM
[16] = second compound 0.1 µM, first compound 1 µM
[17] = second compound 0.1 µM, first compound 3.16 µM
[18] = second compound 0.1 µM, first compound 10 µM
[19] = second compound 0.316 µM, first compound 0.0316 µM
[20] = second compound 0.316 µM, first compound 0.1 µM
[21] = second compound 0.316 µM, first compound 0.316 µM
[22] = second compound 0.316 µM, first compound 1 µM
[23] = second compound 0.316 µM, first compound 3.16 µM
[24] = second compound 0.316 µM, first compound 10 µM
[25] = second compound 1 µM, first compound 0.0316 µM
[26] = second compound 1 µM, first compound 0.1 µM
[27] = second compound 1 µM, first compound 0.316 µM
[28] = second compound 1 µM, first compound 1 µM
[29] = second compound 1 µM, first compound 3.16 µM
[30] = second compound 1 µM, first compound 10 µM
[31] = second compound 3.16 µM, first compound 0.0316 µM
[32] = second compound 3.16 µM, first compound 0.1 µM
[33] = second compound 3.16 µM, first compound 0.316 µM
[34] = second compound 3.16 µM, first compound 1 µM
[35] = second compound 3.16 µM, first compound 3.16 µM
[36] = second compound 3.16 µM, first compound 10 µM
[37] = second compound 10 µM, first compound 0.0316 µM
[38] = second compound 10 µM, first compound 0.1 µM
[39] = second compound 10 µM, first compound 0.316 µM
[40] = second compound 10 µM, first compound 1 µM
[41] = second compound 10 µM, first compound 3.16 µM
[42] = second compound 10 µM, first compound 10 µM
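Note: compound exposure lasted seven days before the viability readout.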
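Throughout, for viability, T/C: 100% = DMSO vehicle control wells.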

CC(Nc1ccc2c(c1)OCCn1cc(N3C(=O)OCC3C(F)F)nc1-2)C(N)=O (stereo not given) + CNC(=O)c1ccc(Nc2nc(OC3CCCC3)c3c(-c4ccc5nc(C)oc5c4)c[nH]c3n2)c(OC)c1
> 10000 nM: IC50 [1]
inactive: viability, T/C [7] 74.7% | viability, T/C [8] 72.8% | viability, T/C [9] 78.1% | viability, T/C [10] 73.9% | viability, T/C [11] 76.3% | viability, T/C [12] 62.8% | viability, T/C [13] 38.7% | viability, T/C [14] 33.6% | viability, T/C [15] 21.3% | viability, T/C [16] 23.2% | viability, T/C [17] 24.6% | viability, T/C [18] 15.3% | viability, T/C [19] 40.3% | viability, T/C [20] 30.3% | viability, T/C [21] 29.1% | viability, T/C [22] 29.2% | viability, T/C [23] 19.1% | viability, T/C [24] 16.7% | viability, T/C [25] 35.5% | viability, T/C [26] 28.9% | viability, T/C [27] 25.1% | viability, T/C [28] 22.4% | viability, T/C [29] 19.9% | viability, T/C [30] 9.04% | viability, T/C [31] 32.5% | viability, T/C [32] 30% | viability, T/C [33] 23% | viability, T/C [34] 22.7% | viability, T/C [35] 18.3% | viability, T/C [36] 11.7% | viability, T/C [37] 32.5% | viability, T/C [38] 28.6% | viability, T/C [39] 23.5% | viability, T/C [40] 18.6% | viability, T/C [41] 22.3% | viability, T/C [42] 14%
< 31.6 nM: IC50 [2] | IC50 [3] | IC50 [4] | IC50 [5] | IC50 [6]

CC(CO)NC(=O)c1cc(-c2ccc(Cl)cc2)nn(-c2cnn(C)c2)c1=O (stereo not given)
inactive: viability, T/C (compound 0.0316 µM) 98.9% and 90.2% | viability, T/C (compound 0.1 µM) 83.6% and 92.8% | viability, T/C (compound 0.316 µM) 84.6% and 97.6% | viability, T/C (compound 1 µM) 68% and 85.8% | viability, T/C (compound 3.16 µM) 88.3% and 95.1% | viability, T/C (compound 10 µM) 72.3% and 68.5%
> 10000 nM: IC50 (curve of compound)

O=c1[nH]cc(F)c(=O)[nH]1 + CNC(=O)c1ccc(Nc2nc(OC3CCCC3)c3c(-c4ccc5nc(C)oc5c4)c[nH]c3n2)c(OC)c1
active: viability, T/C [36] 9.65% | viability, T/C [42] 9.98%
inactive: viability, T/C [7] 86.5% | viability, T/C [8] 76.3% | viability, T/C [9] 80.7% | viability, T/C [10] 70.5% | viability, T/C [11] 70.8% | viability, T/C [12] 54.5% | viability, T/C [13] 50.4% | viability, T/C [14] 35.9% | viability, T/C [15] 31.5% | viability, T/C [16] 33.3% | viability, T/C [17] 29.7% | viability, T/C [18] 28.2% | viability, T/C [19] 41% | viability, T/C [20] 35.2% | viability, T/C [21] 34.5% | viability, T/C [22] 33.7% | viability, T/C [23] 24% | viability, T/C [24] 18.1% | viability, T/C [25] 36.9% | viability, T/C [26] 29.2% | viability, T/C [27] 30.5% | viability, T/C [28] 27.2% | viability, T/C [29] 20.2% | viability, T/C [30] 10.7% | viability, T/C [31] 36.1% | viability, T/C [32] 37.1% | viability, T/C [33] 34.8% | viability, T/C [34] 19.3% | viability, T/C [35] 15.3% | viability, T/C [37] 42.5% | viability, T/C [38] 31.3% | viability, T/C [39] 28.6% | viability, T/C [40] 23.5% | viability, T/C [41] 14.4%
> 10000 nM: IC50 [1]
< 31.6 nM: IC50 [2] | IC50 [3] | IC50 [4] | IC50 [5] | IC50 [6]

C=C(F)C(=O)N1CCN(c2nc(OCC3CCCN3C)nc3c2CCN(c2cccc4cccc(Cl)c24)C3)CC1CC#N (stereo not given)
inactive: viability, T/C (compound 0.0316 µM) 76.2% and 106% | viability, T/C (compound 0.1 µM) 93.9% and 84.4% | viability, T/C (compound 0.316 µM) 95% and 80.9% | viability, T/C (compound 1 µM) 92% and 98.5% | viability, T/C (compound 3.16 µM) 33.3% and 66.9%
active: viability, T/C (compound 10 µM) 0.2% and 1.39%
2240 nM and 4260 nM: IC50 (curve of compound)

C=CC(=O)Nc1cc(Nc2nccc(-c3cn(C)c4ccccc34)n2)c(OC)cc1N(C)CCN(C)C
> 300 nM: IC50 (curve of compound)
inactive: viability, T/C (compound 0.000949 µM) 101% and 85.7% | viability, T/C (compound 0.003 µM) 87.9% and 87.5% | viability, T/C (compound 0.00949 µM) 91.7% and 74.8% | viability, T/C (compound 0.03 µM) 94.4% and 105% | viability, T/C (compound 0.0949 µM) 96.5% and 100% | viability, T/C (compound 0.3 µM) 98.5% and 90.8%
